Source: patent EP2705856A1, “Compounds for the treatment of neurodegenerative disorders” (Deutsches Zentrum für Neurodegenerative Erkrankungen e.V., priority 2012, dated 2014)
Like-named read-outs stand apart in the source and are kept apart here.

Assays:
hCypA = hCypA (Homo sapiens, UniProt P62937); assay: Protease-coupled PPIase assay, CypA; assay type: biochemical
Procedure: The PPlase activity of hFKBP12 and hCypA was determined by using the protease-coupled PPlase assay as described by Fischer, H. Bang, B. Ludwig, K. Mann, J. Hacker, Mol. Microbiol. 1992, 6, 1375-1383. To study the effect of compounds 7-10 on PPlase activity, 100 nM of each hFKBP and 5 nM of each hCyp, respectively and 40 µM peptide substrate were preincubated in the presence or absence of various inhibitor concentrations for 6 min at 10 °C in 35mM HEPES/NaCl buffer (pH 7.5). Then reaction was started by addition of 100 µg/mL of the isomer specific protease chymotrypsin, and the release of 4-nitroaniline was monitored by measuring the absorbance at 390 nm. To achieve better comparability of compounds 7-10 effects on PPlase activity, the concentrations of FKBP and Cyp were kept constant at 100 nM and 5 nM, respectively. Since tested PPlases vary in there catalytic efficiencies, different substrates has to be used to ensure equal rate constants of catalyzed cis/trans isomerization (Table 1). […] Table 1. Substrates for the respective PPlases

hFKBP12 = hFKBP12 (Homo sapiens, UniProt P62942); assay: Protease-coupled PPIase assay, FKBP12; assay type: biochemical; settings: Example 3; read-out: IC50 value, inhibition of PPlase activity of FKBP12
hFKBP12, sequence (P62942 whole entry): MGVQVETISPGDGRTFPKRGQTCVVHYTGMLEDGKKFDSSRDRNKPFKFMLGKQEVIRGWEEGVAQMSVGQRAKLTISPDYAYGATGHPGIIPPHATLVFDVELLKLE
Procedure: The PPlase activity of hFKBP12 and hCypA was determined by using the protease-coupled PPlase assay as described by Fischer, H. Bang, B. Ludwig, K. Mann, J. Hacker, Mol. Microbiol. 1992, 6, 1375-1383. […] Then reaction was started by addition of 100 µg/mL of the isomer specific protease chymotrypsin, and the release of 4-nitroaniline was monitored by measuring the absorbance at 390 nm. […] Since tested PPlases vary in there catalytic efficiencies, different substrates has to be used to ensure equal rate constants of catalyzed cis/trans isomerization (Table 1). […] Table 1. Substrates for the respective PPlases

hCypA, sequence (P62937 whole entry): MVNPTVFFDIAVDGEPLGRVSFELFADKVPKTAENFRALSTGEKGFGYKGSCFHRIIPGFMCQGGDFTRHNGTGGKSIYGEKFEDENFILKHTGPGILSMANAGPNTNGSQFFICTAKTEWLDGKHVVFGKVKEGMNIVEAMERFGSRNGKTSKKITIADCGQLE

Structure (SMILES)	IC50 (hCypA; read-out: /C50-values, inhibition of PPlase activity of hCypA, Example 1, Figure 1: hCypA 5 nM, substrate suc-Ala-Ala-Pro-Phe-pNA) [nM]	IC50 (hCypA; read-out: IC50 value, inhibition of CypA, Example 3) [nM]	IC50 (hFKBP12) [nM]
C/C=C/C[C@@H](C)[C@@H](O)[C@H]1C(=O)N[C@@H](CC)C(=O)N(C)CC(=O)N(C)[C@@H](CC(C)C)C(=O)N[C@@H](C(C)C)C(=O)N(C)[C@@H](CC(C)C)C(=O)N[C@@H](C)C(=O)N[C@H](CO)C(=O)N(C)[C@@H](CC(C)C)C(=O)N(C)[C@@H](CC(C)C)C(=O)N(C)[C@@H](C(C)C)C(=O)N1C [[D-Ser^8]-CsA]	8.3 ± 1.4	1.5 ± 0.4	–
C[C@@H]1C[C@@H]([C@H](O)CC2CC(=O)N(CC(=O)N(C)C)C(=O)C2)C(=O)[C@@H](C)C1 [DM-CHX, N-(N,N-Dimethylcarboxamidomethyl)cycloheximid]	–	–	36.9 ± 17.1
